{"source": "patent US12005095B2", "about": "“Eutectic extraction solvents, extraction methods by eutectigenesis using said solvents, and extracts derived from said extraction methods” (Givaudan France Naturals SAS, priority 2015, dated 2024)", "origin": "cited, not measured here", "tested_on": "cellular melanogenesis", "data": [{"smiles": "O=C1c2c(O)cc(O)cc2O[C@H](c2ccc(O)c(O)c2)[C@H]1O", "note": "[taxifolin]", "values": [{"measurement": "effect on cellular melanogenesis, in words", "value": "inhibit cellular melanogenesis"}]}]}
